{
  "source": "paper PMC4490394",
  "about": "(Scientific Reports, 2015)",
  "key": {"serum testosterone": {"test_system": "serum testosterone", "experiment": "Serum testosterone in intact nude mice bearing orthotopic VCaP tumors", "assay_type": "in vivo", "details": "50 mg/kg bid oral, 3 weeks", "procedure": "(§1) One million VCaP cells in 20 μL of RPMI-1640 medium were orthotopically injected into the dorsal prostate lobes of athymic nude male mice (7 weeks old from Harlan Winkelman, France). Tumor growth was followed by measuring serum PSA (ProStatus™ PSA EQM Kits, Wallac, Finland). […] At autopsy, blood samples were collected by heart puncture, clotted overnight at +4 °C, and centrifuged. For serum testosterone determination, 25-μL aliquots were extracted twice with 2 mL of diethyl ether and evaporated under nitrogen to dryness. The residues were reconstituted in PBS and measured using a standard radioimmunoassay as described previously."}, "orthotopic VCaP tumors": {"test_system": "orthotopic VCaP tumors", "experiment": "Orthotopic VCaP xenograft, tumor growth", "assay_type": "in vivo, nude mice", "details": "50 mg/kg bid oral, 3 weeks, vs control group", "procedure": "as §1"}, "[1]": {"test_system": "DU-145 prostate cancer cells", "experiment": "Viability of AR-negative cells (WST-1)", "assay_type": "cell-based, human", "details": "increasing concentrations, 4 days"}, "[2]": {"test_system": "AR nuclear translocation in HS-HEK293 cells", "method": "AR overexpressing HS-HEK293 cells immunolabeled with an AR-antibody were imaged either with a high-content screening (HCS) reader (Cellomics ArrayScan HCS VTI reader, Thermo) or with a confocal microscope (LSM780, Zeiss). HS-HEK293 cells in steroid-free assay medium were plated on poly-D-lysine coated microplates (BD) (HCS reader) or on coverslips (confocal imaging). After a 48-hour incubation, the cells were treated with 0.3 (HCS reader) or 1 μM (confocal imaging) of test compounds together with 0.3 nM testosterone for 5 hours. […] Cells were washed, DNA was labeled with DAPI (Sigma, 1 μg//mL), and images were analyzed with a NucTrans. V3 assay algorithm (Thermo). […] Coverslips were mounted with Vectashield containing DAPI (Vector Laboratories)."}, "[3]": {"experiment": "Quantitative whole-body autoradiography (QWBA)", "assay_type": "in vivo", "details": "rat, compound and its metabolites, data not shown"}, "AR(W741L)": {"molecular_target": "T1, AR(W741L) (Homo sapiens, UniProt P10275, W742L)", "T1 sequence (P10275 1-920 W742L)": "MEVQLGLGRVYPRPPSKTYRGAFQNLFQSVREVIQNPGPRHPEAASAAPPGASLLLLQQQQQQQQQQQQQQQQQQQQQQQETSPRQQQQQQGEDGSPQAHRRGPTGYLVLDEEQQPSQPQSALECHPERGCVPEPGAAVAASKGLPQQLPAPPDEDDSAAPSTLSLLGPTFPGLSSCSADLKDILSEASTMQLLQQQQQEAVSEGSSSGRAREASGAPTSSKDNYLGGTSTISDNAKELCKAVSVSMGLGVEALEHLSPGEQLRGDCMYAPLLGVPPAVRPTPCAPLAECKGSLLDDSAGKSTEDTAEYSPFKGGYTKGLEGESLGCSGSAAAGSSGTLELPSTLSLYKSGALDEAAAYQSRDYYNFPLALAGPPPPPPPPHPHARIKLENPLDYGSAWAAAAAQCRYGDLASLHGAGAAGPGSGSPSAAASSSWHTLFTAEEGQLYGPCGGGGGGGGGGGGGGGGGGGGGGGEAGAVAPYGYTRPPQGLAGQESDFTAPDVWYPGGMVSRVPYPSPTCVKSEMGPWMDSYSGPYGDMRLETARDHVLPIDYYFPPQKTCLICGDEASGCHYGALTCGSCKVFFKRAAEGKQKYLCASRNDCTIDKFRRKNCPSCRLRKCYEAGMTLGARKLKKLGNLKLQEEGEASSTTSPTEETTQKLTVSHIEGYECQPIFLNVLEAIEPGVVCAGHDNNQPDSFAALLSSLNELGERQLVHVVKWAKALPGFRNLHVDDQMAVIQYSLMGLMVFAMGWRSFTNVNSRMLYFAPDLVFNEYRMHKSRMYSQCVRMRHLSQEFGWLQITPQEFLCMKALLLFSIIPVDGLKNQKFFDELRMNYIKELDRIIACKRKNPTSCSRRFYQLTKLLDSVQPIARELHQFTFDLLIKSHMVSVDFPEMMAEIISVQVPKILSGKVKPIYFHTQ", "method": "For one well in a 96-well plate, 190 ng of reporter construct DNA and 10 ng of receptor construct DNA were diluted in Opti-MEM® (Gibco). […] Luciferase activity was measured as described above."}},
  "data": [
    {"compound": "CC(O)c1cc(C(=O)N[C@@H](C)Cn2ccc(-c3ccc(C#N)c(Cl)c3)n2)[nH]n1", "note": "(stereo partly drawn) [ODM-201]", "values": [
      {"measurement": "effect on serum testosterone levels", "setting": "serum testosterone", "result": "did not affect"},
      {"measurement": "orthotopic VCaP tumor growth", "setting": "orthotopic VCaP tumors", "result": "inhibited tumor growth significantly"},
      {"measurement": "effect on viability of DU-145 cells", "setting": "[1]", "result": "no effect"},
      {"measurement": "effect on testosterone-induced nuclear translocation of AR", "setting": "[2]", "result": "inhibit"},
      {"measurement": "access into the brain (QWBA)", "setting": "[3]", "result": "very low access"},
      {"measurement": "functional activity (agonist/antagonist) on AR(W741L)", "setting": "AR(W741L)", "result": "full antagonists"}
    ]}
  ]
}
